# Assay results published in US20240101589A1, “INHIBITORS OF METTL3” (Strom Therapeutics Limited, priority 2020, published 2024).
# Molecular target: METTL3/14 (Homo sapiens (Human), UniProt Q86U44)
# Experiment: METTL3/14 methyltransferase assay (RapidFire mass spectrometry, RFMS)
# Type: biochemical
# Details: 5 nM METTL3/14, 0.2 μM RNA substrate, 0.5 μM SAM, 60 minutes at room temperature
# Protocol: The enzymatic assay was established to determine IC50 values for inhibition of RNA methyltransferase activity. The enzyme used was full-length his-tagged METTL3 co-expressed with full length FLAG-tagged METTL14 in a baculovirus expression system. Enzymatic reactions were performed at room temperature in 384-well plates using a final reaction volume of 20 μL containing 20 mM TrisCl pH 7.6, 1 mM DTT, 0.01% Tween-20. 5 nM final concentration of METTL3/14 was pre-incubated with various compound concentrations for 10 minutes, followed by addition of 0.2 μM final concentration synthetic RNA substrate (5′P-[…]-3′) and 0.5 μM final concentration S-adenosyl-methionine (SAM). The reaction was incubated for a further 60 minutes at room temperature, and then quenched by the addition of 40 μL 7.5% TCA with two internal product standards (D4-SAH and 13C10-SAH). After termination, plates were sealed, centrifuged and stored at 4° C. until analysis.
# RNA methyltransferase activity was measured label free using the RapidFire™ mass spectrometry (RF/MS) platform. Stopped and stable assay plates were analyzed on the Agilent RF300 integrated autosampler/solid-phase extraction (SPE) system coupled to an ABSciex 4000 mass spectrometer for the generation of the product S-adenosyl homocysteine (SAH) and normalized to the ratio of signal of the two internal product standards, respectively. Solvent A was water containing 0.1% (v/v) TCA. Solvent B was acetonitrile/0.1% ammonium acetate (8:2, v/v). More specifically, plates were centrifuged at 4350 rpm for 10 min, samples were aspirated under vacuum for 600 ms, then loaded onto a C18 solid-phase extraction cartridge and washed for 3 s with solvent A at a flow rate of 1.5 mL/min. Retained product and internal standards were eluted with solvent B at a flow rate of 1 mL/min for 3 s and finally the cartridge was re-equilibrated with solvent A for 500 ms. The mass transition for the product (SAH) was 384.9/135.9 Da. Transitions of the two internal product standards (IS1: D4-SAH and IS2: 13C10-SAH) were 389.1/135.8 Da and 395.0/134.2 Da, respectively. Ratios of SAH/IS1 and SAH/IS2 were used for normalization of matrix effects. IC50 values were calculated based on dilution series of individual compounds. Potency of a compound was measured at varied inhibitor concentrations and normalized to control wells without RNA substrate and without inhibition (DMSO only).
# METTL3/14, sequence (Q86U44 whole entry): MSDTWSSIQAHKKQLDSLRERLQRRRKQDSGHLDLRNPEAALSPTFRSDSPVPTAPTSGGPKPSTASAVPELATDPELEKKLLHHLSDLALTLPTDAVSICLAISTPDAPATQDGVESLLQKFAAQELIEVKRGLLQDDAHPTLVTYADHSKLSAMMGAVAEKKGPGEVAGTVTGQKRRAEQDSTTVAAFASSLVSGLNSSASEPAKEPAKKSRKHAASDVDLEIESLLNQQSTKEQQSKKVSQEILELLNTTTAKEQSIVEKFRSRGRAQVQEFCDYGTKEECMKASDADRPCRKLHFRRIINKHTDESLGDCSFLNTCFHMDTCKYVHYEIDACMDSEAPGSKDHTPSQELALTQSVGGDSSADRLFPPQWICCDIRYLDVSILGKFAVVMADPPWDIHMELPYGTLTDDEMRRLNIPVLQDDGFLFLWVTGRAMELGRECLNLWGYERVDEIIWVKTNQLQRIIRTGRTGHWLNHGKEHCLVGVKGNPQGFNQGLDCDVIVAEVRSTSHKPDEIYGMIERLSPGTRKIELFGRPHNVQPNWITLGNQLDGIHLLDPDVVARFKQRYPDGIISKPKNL
# METTL3/14, sequence (Q9HCE5 whole entry partner): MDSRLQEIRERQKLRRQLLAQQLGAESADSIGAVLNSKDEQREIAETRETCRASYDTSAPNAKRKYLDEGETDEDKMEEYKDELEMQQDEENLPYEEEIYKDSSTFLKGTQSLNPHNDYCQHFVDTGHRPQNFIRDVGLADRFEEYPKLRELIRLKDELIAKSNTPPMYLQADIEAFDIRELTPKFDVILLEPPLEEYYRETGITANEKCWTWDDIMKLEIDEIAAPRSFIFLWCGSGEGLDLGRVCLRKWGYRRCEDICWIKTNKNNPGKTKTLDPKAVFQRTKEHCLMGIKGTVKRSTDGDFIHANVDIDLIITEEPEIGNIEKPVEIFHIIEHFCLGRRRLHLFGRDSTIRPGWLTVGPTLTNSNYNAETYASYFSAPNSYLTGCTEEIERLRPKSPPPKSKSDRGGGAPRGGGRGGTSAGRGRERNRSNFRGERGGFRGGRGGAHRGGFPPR
row,IC50 [nM],Compound
1,44.8,"Nc1ncnc2c1c(Br)cn2[C@@H]1O[C@H](/C=C/CCCNCc2ccccc2)[C@@H](O)[C@H]1O [Example 1, (2R,3R,4S,5R)-2-(4-amino-5-bromo-7H-pyrrolo[2,3-d]pyrimidin-7-yl)-5-((E)-5-(benzylamino)pent-1-en-1-yl)tetrahydrofuran-3,4-diol]"
2,317,"Nc1ncnc2c1c(Br)cn2[C@@H]1O[C@H](/C=C/CCNCc2ccccc2)[C@@H](O)[C@H]1O [Example 3, (2R,3R,4S,5R)-2-{4-amino-5-bromo-7H-pyrrolo[2,3-d]pyrimidin-7-yl}-5-[(1E)-4-(benzylamino)but-1-en-1-yl]oxolane-3,4-diol]"
3,568,"NCC/C=C/[C@H]1O[C@@H](n2cc(Br)c3c(N)ncnc32)[C@H](O)[C@@H]1O [Example 7, (2R,3R,4S,5R)-2-{4-amino-5-bromo-7H-pyrrolo[2,3-d]pyrimidin-7-yl}-5-[(1E)-4-aminobut-1-en-1-yl]oxolane-3,4-diol]"
4,505,"NCCC/C=C/[C@H]1O[C@@H](n2cc(Br)c3c(N)ncnc32)[C@H](O)[C@@H]1O [Example 8, (2R,3R,4S,5R)-2-{4-amino-5-bromo-7H-pyrrolo[2,3-d]pyrimidin-7-yl}-5-[(1E)-5-aminopent-1-en-1-yl]oxolane-3,4-diol]"
5,460,"Nc1ncnc2c1c(Br)cn2[C@@H]1O[C@H](/C=C/C2CNC2)[C@@H](O)[C@H]1O [Example 13, (2R,3R,4S,5R)-2-{4-amino-5-bromo-7H-pyrrolo[2,3-d]pyrimidin-7-yl}-5-[(1E)-2-(azetidin-3-yl)ethenyl]oxolane-3,4-diol]"
6,413,"Nc1ncnc2c1c(Br)cn2[C@@H]1O[C@H](/C=C/C2CCNCC2)[C@@H](O)[C@H]1O [Example 14, (2R,3R,4S,5R)-2-{4-amino-5-bromo-7H-pyrrolo[2,3-d]pyrimidin-7-yl}-5-[(1E)-2-(piperidin-4-yl)ethenyl]oxolane-3,4-diol]"
7,351,"Nc1ncnc2c1c(Br)cn2[C@@H]1O[C@H](/C=C/C2CCCNC2)[C@@H](O)[C@H]1O (stereo partly drawn) [Example 15, (2R,3R,4S,5R)-2-{4-amino-5-bromo-7H-pyrrolo[2,3-d]pyrimidin-7-yl}-5-[(1E)-2-(piperidin-3-yl)ethenyl]oxolane-3,4-diol]"
8,453,"Nc1ncnc2c1c(Br)cn2[C@@H]1O[C@H](/C=C/C2CCNC2)[C@@H](O)[C@H]1O (stereo partly drawn) [Example 16, (2R,3R,4S,5R)-2-{4-amino-5-bromo-7H-pyrrolo[2,3-d]pyrimidin-7-yl}-5-[(1E)-2-(pyrrolidin-3-yl)ethenyl]oxolane-3,4-diol]"
9,1310,"Nc1ncnc2c1c(Br)cn2[C@@H]1O[C@H](/C=C/C2CC(N)C2)[C@@H](O)[C@H]1O (stereo partly drawn) [Example 17, (2R,3R,4S,5R)-2-{4-amino-5-bromo-7H-pyrrolo[2,3-d]pyrimidin-7-yl}-5-[(1E)-2-(3-aminocyclobutyl)ethenyl]oxolane-3,4-diol]"
10,2930,"Nc1ncnc2c1c(Br)cn2[C@@H]1O[C@H](/C=C/C2COC2)[C@@H](O)[C@H]1O [Example 18, (2R,3R,4S,5R)-2-{4-amino-5-bromo-7H-pyrrolo[2,3-d]pyrimidin-7-yl}-5-[(1E)-2-(oxetan-3-yl)ethenyl]oxolane-3,4-diol]"
11,522,"Nc1ncnc2c1c(Br)cn2[C@@H]1O[C@H](/C=C/CC2CNC2)[C@@H](O)[C@H]1O [Example 19, (2R,3R,4S,5R)-2-{4-amino-5-bromo-7H-pyrrolo[2,3-d]pyrimidin-7-yl}-5-[(1E)-3-(azetidin-3-yl)prop-1-en-1-yl]oxolane-3,4-diol]"
12,63.5,"Nc1ncnc2c1c(Br)cn2[C@@H]1O[C@H](/C=C/CCCN2CCC(F)(F)CC2)[C@@H](O)[C@H]1O [Example 23, (2R,3R,4S,5R)-2-{4-amino-5-bromo-7H-pyrrolo[2,3-d]pyrimidin-7-yl}-5-[(1E)-5-(4,4-difluoropiperidin-1-yl)pent-1-en-1-yl]oxolane-3,4-diol]"
13,231,"Nc1ncnc2c1c(Br)cn2[C@@H]1O[C@H](/C=C/CCCN2CCC(F)CC2)[C@@H](O)[C@H]1O [Example 24, (2R,3R,4S,5R)-2-{4-amino-5-bromo-7H-pyrrolo[2,3-d]pyrimidin-7-yl}-5-[(1E)-5-(4-fluoropiperidin-1-yl)pent-1-en-1-yl]oxolane-3,4-diol]"
14,1090,"Nc1ncnc2c1c(Br)cn2[C@@H]1O[C@H](/C=C/CCCN2CCOCC2)[C@@H](O)[C@H]1O [Example 25, (2R,3R,4S,5R)-2-{4-amino-5-bromo-7H-pyrrolo[2,3-d]pyrimidin-7-yl}-5-[(1E)-5-(morpholin-4-yl)pent-1-en-1-yl]oxolane-3,4-diol]"
15,351,"Nc1ncnc2c1c(Br)cn2[C@@H]1O[C@H](/C=C/CCCN2CCCC(F)C2)[C@@H](O)[C@H]1O (stereo partly drawn) [Example 26, (2R,3R,4S,5R)-2-{4-amino-5-bromo-7H-pyrrolo[2,3-d]pyrimidin-7-yl}-5-[(1E)-5-(3-fluoropiperidin-1-yl)pent-1-en-1-yl]oxolane-3,4-diol]"
16,9.6,"Nc1ncnc2c1c(Br)cn2[C@@H]1O[C@H](/C=C/CCCNCC23CC(F)(C2)C3)C[C@H]1O [Example 27, (2R,3R,5S)-2-{4-amino-5-bromo-7H-pyrrolo[2,3-d]pyrimidin-7-yl}-5-[(1E)-5-[({3-fluorobicyclo[1.1.1]pentan-1-yl}methyl)amino]pent-1-en-1-yl]oxolan-3-ol]"
17,19.7,"Nc1ncnc2c1c(Br)cn2[C@@H]1O[C@H](/C=C/CCCNCC23CC(F)(C2)C3)[C@H](F)[C@H]1O [Example 28, (2R,3S,4R,5R)-2-{4-amino-5-bromo-7H-pyrrolo[2,3-d]pyrimidin-7-yl}-4-fluoro-5-[(1E)-5-[({3-fluorobicyclo[1.1.1]pentan-1-yl}methyl)amino]pent-1-en-1-yl]oxolan-3-ol]"
18,7930,"Nc1ncnc2c1c(Br)cn2[C@@H]1C[C@H](c2cccc(C(=O)NCC34CC(F)(C3)C4)c2)[C@@H](O)[C@H]1O [Example 40, 3-[(1R,2R,3S,4R)-4-{4-amino-5-bromo-7H-pyrrolo[2,3-d]pyrimidin-7-yl}-2,3-dihydroxycyclopentyl]-N-({3-fluorobicyclo[1.1.1]pentan-1-yl}methyl)benzamide]"
19,60,"Nc1ncnc2c1c(Br)cn2[C@@H]1O[C@H](/C=C/CCCNCC23CC(F)(C2)C3)[C@@H](O)[C@H]1F [Example 41, (2R,3R,4R,5R)-5-{4-amino-5-bromo-7H-pyrrolo[2,3-d]pyrimidin-7-yl}-4-fluoro-2-[(1E)-5-[({3-fluorobicyclo[1.1.1]pentan-1-yl}methyl)amino]pent-1-en-1-yl]oxolan-3-ol]"

# System: KASUMI-1 cells
# Experiment: Kasumi cell proliferation CTG
# Type: cell-based
# Details: Homo sapiens, Kasumi 1, 120 h, treated for 120 hours, CellTiter-Glo
# Protocol: Cell culture: KASUMI-1 cells (ACC20, Leibniz-Institut DSMZ Deutsche Sammlung von Mikroorganismen und Zellkulturen GmbH) were grown in RPMI 1640 (31870-025, Gibco) supplemented with 20% fetal bovine serum (F1524, Gibco), 1 mM sodium pyruvate (11360-039, Gibco) and 2 mM Glutamax (35050-038, Gibco) in a 5% CO2 humidified incubator at 37° C.
# Cell treatment and cell growth assessment: KASUMI-1 cells were seeded in ultra-low attachment 384-well culture plate (MS-9384WZ, SBio) at a final concentration of 250 000 cells/ml (35 μL/well) and treated for 120 hours with compounds inhibiting the METTL3/14 activity (10 serial semi-log dilutions, 30 μM as top concentration). Upon treatment, Kasumi1 cells were incubated for 10 min at RT with the CellTiter-Glo reagent (G7571, Promega). Measurement of the luminescence signal was performed on a microplate reader (Ensight, PerkinElmer).
row,Compound,IC50 [nM]
1,"Nc1ncnc2c1c(Br)cn2[C@@H]1O[C@H](/C=C/CCCNCC2CC(F)(F)C2)[C@@H](O)[C@H]1O [Example 4, (2R,3R,4S,5R)-2-{4-amino-5-bromo-7H-pyrrolo[2,3-d]pyrimidin-7-yl}-5-[(1E)-5-{[(3,3-difluorocyclobutyl)methyl]amino}pent-1-en-1-yl]oxolane-3,4-diol]",4800
2,"Nc1ncnc2c1c(Br)cn2[C@@H]1O[C@H](/C=C/C2CC(N)C2)[C@@H](O)[C@H]1O (stereo partly drawn) [Example 17, (2R,3R,4S,5R)-2-{4-amino-5-bromo-7H-pyrrolo[2,3-d]pyrimidin-7-yl}-5-[(1E)-2-(3-aminocyclobutyl)ethenyl]oxolane-3,4-diol]",12400

# Same assay, conditions: treated for 120 hours, CellTiter-Glo
row,Compound,IC50 [nM]
1,"Nc1ncnc2c1c(Br)cn2[C@@H]1O[C@H](/C=C/CCCNCc2ccccc2)[C@@H](O)[C@H]1O [Example 1, (2R,3R,4S,5R)-2-(4-amino-5-bromo-7H-pyrrolo[2,3-d]pyrimidin-7-yl)-5-((E)-5-(benzylamino)pent-1-en-1-yl)tetrahydrofuran-3,4-diol]",4900
